Experimental data reported in article PMC9696794, “Synthesis and Antimicrobial Activity of Short Analogues of the Marine Antimicrobial Peptide Turgencin A: Effects of SAR Optimizations, Cys-Cys Cyclization and Lipopeptide Modifications” (International Journal of Molecular Sciences, 2022).
Values after ≈ are worked out from the molar mass of the structure shown. Where a SMILES comes first, the peptide text is derived from it. Bridges are numbered along the chain shown (N, C = ends). The star is where a group is joined. Decanoyl = CCCCCCCCCC(=O)*

What was measured:
[1] = tested on: fungi (A. pullulans, C. albicans, Rhodotorula sp.); experiment: Antifungal MIC assay, all fungi together (range or geometric mean); format: cell-based; conditions: Table S3; MIC >128 set to 128
Outline: (§1)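 Overnight cultures in potato dextrose broth with 2% glucose at 25–30 °C were diluted to approx. 4 × 10^5 spores/mL and mixed 1:1 with two-fold peptide dilutions plated at 256 to 1 µg/mL. After 48 h at room temperature, OD600 was read. MIC was the lowest concentration giving OD below 10% of the growth control, in triplicate.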

[2] = tested on: A. pullulans (Ap); experiment: microbe, parasite or virus in culture; format: cell-based, Aurobasidium pollulans; conditions: 48 h
Outline: as §1

[3] = tested on: Gram-positive bacterial strains; conditions: for GM of MIC G+: Table S3, MIC >256 set to 256
Outline: (§2)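 Cultures grown in Mueller–Hinton broth were adjusted by OD600 to 2.5–3 × 10^4 CFU/mL and mixed with two-fold peptide dilutions from 256 to 1 µg/mL. Plates were incubated at 35 °C with OD595 monitored every hour for 24 h.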

[4] = tested on: Gram-negative bacterial strains (E. coli and P. aeruginosa); experiment: Antibacterial MIC assay, Gram-negative strains together (range or geometric mean); format: cell-based; conditions: Table S3; MIC >256 set to 256
Outline: as §2

[5] = tested on: Rhodotorula sp. (Rh); experiment: microbe, parasite or virus in culture; format: cell-based; conditions: 48 h
Outline: as §1

[6] = tested on: B. subtilis (Bs, ATCC 23857); experiment: microbe, parasite or virus in culture; format: cell-based, Bacillus subtilis; conditions: ATCC 23857, 24 h
Outline: as §2

[7] = tested on: P. aeruginosa (Pa, ATCC 27853); experiment: microbe, parasite or virus in culture; format: cell-based, Pseudomonas aeruginosa; conditions: ATCC 27853, 24 h
Outline: as §2

[8] = tested on: S. aureus (Sa, ATCC 9144); experiment: microbe, parasite or virus in culture; format: cell-based, Staphylococcus aureus; conditions: ATCC 9144, 24 h
Outline: as §2

[9] = tested on: E. coli NR698 (outer membrane permeable mutant, imp4213); experiment: microbe, parasite or virus in culture; conditions: MC4100 NR698 imp4213, deficient outer membrane
Outline: (§3)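 Broth microdilution in Mueller–Hinton medium, 2.5–3 × 10^4 CFU/mL inoculum, two-fold peptide dilutions from 256 to 1 µg/mL, 35 °C with OD595 read hourly for 24 h. MIC is the lowest concentration giving OD below 10% of the untreated growth control; run in triplicate.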

[10] = tested on: E. coli MC4100 (wild type, WT); experiment: microbe, parasite or virus in culture; conditions: wild type
Outline: as §3

[11] = tested on: all bacterial strains; experiment: Antibacterial MIC assay, all bacterial strains together (range or geometric mean); format: cell-based; conditions: for GM (geometric mean of the MIC values against all bacterial strains): Table 1, six bacterial strains; for GM of MIC Tot. bact.: Table S3, all bacterial test strains, MIC >256 set to 256
Outline: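 Broth microdilution in Mueller–Hinton broth against B. subtilis, C. glutamicum, S. aureus, S. epidermidis RP62A, E. coli and P. aeruginosa; inoculum 2.5–3 × 10^4 CFU/mL, 35 °C, OD595 read hourly for 24 h. MIC: lowest peptide concentration giving OD below 10% of growth control; geometric mean across strains, triplicate.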

[12] = tested on: C. glutamicum (Cg, ATCC 13032); experiment: microbe, parasite or virus in culture; format: cell-based, Corynebacterium glutamicum; conditions: ATCC 13032, 24 h
Outline: as §2

[13] = tested on: E. coli (Ec, ATCC 25922); experiment: microbe, parasite or virus in culture; format: cell-based, Escherichia coli; conditions: ATCC 25922, 24 h
Outline: as §2

[14] = tested on: C. albicans (Ca, ATCC 10231); experiment: microbe, parasite or virus in culture; format: cell-based, Candida albicans; conditions: ATCC 10231, 48 h
Outline: as §1

[15] = tested on: human red blood cells (RBC); experiment: Haemolytic activity assay; format: cell-based; conditions: for Selectivity index (SI) G- / Selectivity index (SI) G+ / Selectivity index (SI) Fungi: Table S3, highest tested concentration used where EC50 above it; for Selectivity index (SI) G-: EC50/GM of Gram-negative strains; for Selectivity index (SI) G+: EC50/GM of Gram-positive strains; for Selectivity index (SI) Fungi: EC50/GM of fungi; for RBC Tox. (EC50), haemolytic activity: human RBC, 1 h, 37 °C, concentration giving 50% haemolysis
Outline: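 Washed human erythrocytes (1% hematocrit final) incubated 1 h at 37 °C with agitation with lipopeptides at 500–3.9 μM in PBS (≤1% DMSO), duplicates. Haemoglobin release read at 545 nm relative to 0.1% Triton X-100; EC50 is 50% haemolysis, averaged from three experiments.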

[16] = tested on: S. epidermidis RP62A (Se, ATCC 35984); experiment: microbe, parasite or virus in culture; format: cell-based, Staphylococcus epidermidis; conditions: ATCC 35984, 24 h
Outline: as §2

Row | SMILES | GM of MIC Fungi [1] | Antimicrobial Activity (MIC) Fungi Ap [2] | GM of MIC G+ [3] | GM of MIC G- [4] | Antimicrobial Activity (MIC) Fungi Rh [5] | Antimicrobial Activity (MIC) Gram + Bs [6] | Antimicrobial Activity (MIC) Gram − Pa [7] | Antimicrobial Activity (MIC) Gram + Sa [8] | MIC E. coli NR698 (mutant) [9] | MIC E. coli MC4100 (WT) [10] | GM (geometric mean of the MIC values against all bacterial strains) [11] | GM of MIC Tot. bact. [11] | Antimicrobial Activity (MIC) Gram + Cg [12] | Antimicrobial Activity (MIC) Gram − Ec [13] | Antimicrobial Activity (MIC) Fungi Ca [14] | Selectivity index (SI) G- [15] | Selectivity index (SI) G+ [15] | Selectivity index (SI) Fungi [15] | RBC Tox. (EC50), haemolytic activity [15] | Antimicrobial Activity (MIC) Gram + Se [16] | further results
1 | CCCCCCCCCC(=O)N[C@H]1CSSC[C@@H](C(=O)N[C@@H](CCCCN)C(=O)N[C@@H](CC(C)C)C(N)=O)NC(=O)[C@H](CCCCN)NC(=O)[C@H](Cc2c[nH]c3ccccc23)NC(=O)CNC(=O)CNC(=O)[C@@H]2CCCN2C(=O)[C@H](CCCCN)NC(=O)[C@H](CCCCN)NC(=O)CNC1=O [Peptide C10-cTurg-1, C10 -(CGKKPGGWKC)KL-NH2] (Decanoyl-CGKKPGGWKCKL-NH2; disulfide 1-10) | 20 µg/mL | 32 µg/mL | 4 µg/mL | 16 µg/mL | 4 µg/mL | 2 µg/mL | 32 µg/mL | 16 µg/mL | 4 µg/mL (≈ 2.75 µM) | 8 µg/mL (≈ 5.49 µM) | 6 µg/mL | 6 µg/mL | 2 µg/mL | 8 µg/mL | 64 µg/mL | > 60 | > 239 | > 47 | >956 µg/mL | 4 µg/mL | 
2 | CC(C)C[C@H](NC(=O)[C@H](CCCNC(=N)N)NC(=O)[C@@H]1CSSC[C@H](N)C(=O)NCC(=O)N[C@@H](CCCNC(=N)N)C(=O)N[C@@H](CCCNC(=N)N)C(=O)N[C@@H](Cc2c[nH]c3ccccc23)C(=O)NCC(=O)N[C@@H](Cc2c[nH]c3ccccc23)C(=O)N[C@@H](Cc2c[nH]c3ccccc23)C(=O)N[C@@H](CCCNC(=N)N)C(=O)N1)C(N)=O [cTurg-6] (H-CGRRWGWWRCRL-NH2; disulfide 1-10; N-terminus assumed) | 32 µg/mL | 32 µg/mL | 7 µg/mL | 11 µg/mL | 32 µg/mL | 4 µg/mL | 16 µg/mL | 16 µg/mL | 8 µg/mL (≈ 4.9 µM) | 8 µg/mL (≈ 4.9 µM) | 8 µg/mL | 8 µg/mL | 4 µg/mL | 8 µg/mL | 32 µg/mL | > 97 | > 164 | > 34 | > 1045 µg/mL | 8 µg/mL | MIC against the Gram-positive bacterial strains ([3]; 2 h): 4 to 16 µg/mL
3 | CC(C)C[C@H](NC(=O)[C@H](CCCCN)NC(=O)[C@@H]1CSSC[C@H](N)C(=O)NCC(=O)N[C@@H](CCCCN)C(=O)N[C@@H](CCCCN)C(=O)N[C@@H](Cc2c[nH]c3ccccc23)C(=O)N[C@@H](Cc2c[nH]c3ccccc23)C(=O)NCC(=O)N[C@@H](Cc2c[nH]c3ccccc23)C(=O)N[C@@H](CCCCN)C(=O)N1)C(N)=O [cTurg-2] (H-CGKKWWGWKCKL-NH2; disulfide 1-10; N-terminus assumed) | 32 µg/mL | 32 µg/mL | 11 µg/mL | 64 µg/mL | 32 µg/mL | 8 µg/mL | 64 µg/mL | 32 µg/mL | 8 µg/mL (≈ 5.26 µM) | 16 µg/mL (≈ 10.5 µM) | 20 µg/mL | 20 µg/mL | 4 µg/mL | 64 µg/mL | 32 µg/mL | > 16 | > 92 | > 33 | >1045 µg/mL | 16 µg/mL | SI (selectivity index = EC50/GM) ([15]; haemolytic EC50 over GM of MIC against all bacterial strains, Table 1): >52
